Common to all, as to assay type: biochemical
The target in assay [1] is T1, JAK1 (aa 850-1154, catalytic domain, GST-tag) (Homo sapiens, UniProt P23458).
T1 construct: JAK1 (aa 850-1154) and TYK2 (aa 871-1187) are expressed with an N-terminally fused GST-tag; GST (N); purchased Carna Biosciences, Inc; host or cells: baculovirus expression system
Description: JAK kinase assay (HTRF, phosphorylation of TK substrate-biotin), JAK1. As to conditions: ATP at Km (7 μM), read-out: JAK1 kinase inhibitory activity (EC50 indicator). Put shortly:
(§1)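 Compound was mixed with TK substrate-biotin (1 μM final), then kinase plus ATP at its Km was added and left 20-30 min at room temperature. Detection mix with EDTA, Streptavidin-XL665 and STK Ab Cryptate stopped the reaction; after overnight dark incubation, HTRF was read and EC50 derived.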
(TR-FRET usually uses a lanthanide donor and a delayed reading to cut background.)

Assay [2] deals with T2, JAK2 (catalytic domain, His-tag) (Homo sapiens, UniProt O60674).
T2 construct: All four purified enzymes contain only the catalytic domain; His (N); purchased Carna Biosciences, Inc; host or cells: baculovirus expression system
Description: JAK kinase assay (HTRF, phosphorylation of TK substrate-biotin), JAK2. As to conditions: ATP at Km (4 μM), read-out: JAK2 kinase inhibitory activity (EC50 indicator). Put shortly: as §1

For assay [3], the target named is T3, JAK3 (catalytic domain, His-tag) (Homo sapiens, UniProt P52333).
T3 construct: All four purified enzymes contain only the catalytic domain; His (N); purchased Carna Biosciences, Inc; host or cells: baculovirus expression system
Kind of assay: JAK kinase assay (HTRF, phosphorylation of TK substrate-biotin), JAK3. The settings on record: ATP at Km (2 μM), read-out: JAK3 kinase inhibitory activity (EC50 indicator). Put shortly: as §1

In assay [4] the target is T4, TYK2 (aa 871-1187, catalytic domain, GST-tag) (Homo sapiens, UniProt P29597).
T4 construct: JAK1 (aa 850-1154) and TYK2 (aa 871-1187) are expressed with an N-terminally fused GST-tag; GST (N); purchased Carna Biosciences, Inc; host or cells: baculovirus expression system
T4 sequence (P29597 871-1187): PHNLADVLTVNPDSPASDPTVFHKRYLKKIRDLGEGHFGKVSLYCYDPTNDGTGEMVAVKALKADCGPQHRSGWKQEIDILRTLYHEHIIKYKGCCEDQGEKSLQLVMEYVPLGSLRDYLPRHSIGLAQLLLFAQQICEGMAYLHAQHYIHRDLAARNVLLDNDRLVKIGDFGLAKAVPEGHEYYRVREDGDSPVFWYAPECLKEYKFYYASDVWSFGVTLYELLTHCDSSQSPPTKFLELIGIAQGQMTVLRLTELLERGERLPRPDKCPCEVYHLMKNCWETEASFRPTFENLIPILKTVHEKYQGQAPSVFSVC
Description: JAK kinase assay (HTRF, phosphorylation of TK substrate-biotin), TYK2. As to conditions: ATP at Km (13 μM), read-out: TYK2 kinase inhibitory activity (EC50 indicator). Put shortly:
as §1

Each structure is given as a SMILES string. Like-named read-outs stand apart in the source and are kept apart here.

The results in this text go back to US9346809B2 (LEO PHARMA A/S, priority 2009, dated 2016).

For orientation: EC50 means the concentration that produces a half-maximal response.

T2 sequence (O60674 849-1124 limits assumed): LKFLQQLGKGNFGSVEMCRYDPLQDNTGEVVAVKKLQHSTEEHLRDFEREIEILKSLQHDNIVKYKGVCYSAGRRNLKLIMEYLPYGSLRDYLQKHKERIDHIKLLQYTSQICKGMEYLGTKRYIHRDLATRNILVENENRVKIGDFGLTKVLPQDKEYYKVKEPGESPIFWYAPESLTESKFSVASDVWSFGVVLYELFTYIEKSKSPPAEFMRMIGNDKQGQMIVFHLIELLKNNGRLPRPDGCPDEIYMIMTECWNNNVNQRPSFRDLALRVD
T3 sequence (P52333 822-1111 limits assumed): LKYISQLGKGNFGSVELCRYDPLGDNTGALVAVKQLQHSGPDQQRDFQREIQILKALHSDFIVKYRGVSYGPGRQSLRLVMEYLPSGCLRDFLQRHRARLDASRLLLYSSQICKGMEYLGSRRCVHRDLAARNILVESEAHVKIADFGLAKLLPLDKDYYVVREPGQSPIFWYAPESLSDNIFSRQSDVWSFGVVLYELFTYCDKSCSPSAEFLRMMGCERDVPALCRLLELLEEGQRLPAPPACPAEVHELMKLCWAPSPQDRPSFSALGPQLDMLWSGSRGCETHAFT
T1 sequence (P23458 850-1154): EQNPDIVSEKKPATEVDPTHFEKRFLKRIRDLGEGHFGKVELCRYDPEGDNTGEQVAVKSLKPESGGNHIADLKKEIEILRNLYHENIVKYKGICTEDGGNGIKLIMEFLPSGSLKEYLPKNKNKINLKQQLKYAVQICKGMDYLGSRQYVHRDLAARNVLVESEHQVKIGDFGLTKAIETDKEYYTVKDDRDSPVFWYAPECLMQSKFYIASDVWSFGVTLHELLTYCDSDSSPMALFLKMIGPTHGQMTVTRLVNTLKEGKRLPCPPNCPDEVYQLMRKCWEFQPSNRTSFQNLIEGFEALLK

With `O=C(CCC(F)(F)F)N1CCN(c2ncnc3[nH]ccc23)CC12CC2` [Example 28, 4,4,4-Trifluoro-1-[7-(7H-pyrrolo[2,3-d]pyrimidin-4-yl)-4,7-diazaspiro[2.5]oct-4-yl]butan-1-one], the EC50 was below 0.1 µM in assay [1], below 0.1 µM in assay [2], below 0.1 µM in assay [3] and 0.1 to 0.5 µM in assay [4].

For `CC(C#N)c1cccc(C(=O)N2CCN(c3ncnc4[nH]ccc34)CC23CC3)c1` (centres unmarked) [Example 8, 2-{3-[7-(7H-Pyrrolo[2,3-d]pyrimidin-4-yl)-4,7-diazaspiro[2.5]octane-4-carbonyl]phenyl}propionitrile], the EC50 in assay [1] is below 0.1 µM; in assay [2], below 0.1 µM; in assay [3] it was 0.1 to 0.5 µM; in assay [4] it was above 0.5 µM.

As to `CC(C)S(=O)(=O)c1ccc(C(=O)N2C3CCC2CN(c2ncnc4[nH]ccc24)C3)cc1` [Example 202, [4-(Propane-2-sulfonyl)-phenyl]-[3-(7H-pyrrolo[2,3-d]pyrimidin-4-yl)-3,8-diaza-bicyclo[3.2.1]oct-8-yl]-methanone], the EC50 in assay [1] is 0.1 to 0.5 µM; in assay [2], 0.1 to 0.5 µM; in assay [3] it was above 0.5 µM; in assay [4], above 0.5 µM.

For the molecule `O=C1CC(C(=O)N2CCN(c3ncnc4[nH]ccc34)CC23CC3)c2ccccc21` (centres unmarked) [Example 126, 3-[7-(7H-Pyrrolo[2,3-d]pyrimidin-4-yl)-4,7-diaza-spiro[2.5]octane-4-carbonyl]-indan-1-one], the EC50 in assay [1] is below 0.1 µM; in assay [2], below 0.1 µM; in assay [3], 0.1 to 0.5 µM; in assay [4], above 0.5 µM.

Take `NS(=O)(=O)c1ccc(NC(=O)C(=O)N2CCN(c3ncnc4[nH]ccc34)CC23CC3)cc1` [Example 401, 2-Oxo-2-[7-(7H-pyrrolo[2,3-d]pyrimidin-4-yl)-4,7-diaza-spiro[2.5]oct-4-yl]-N-(4-sulfamoyl-phenyl)-acetamide]: the EC50 in assay [1] (HTRF assay), in assay [2] (HTRF assay), in assay [3] (HTRF assay) and in assay [4] (HTRF assay) was below 0.1 µM throughout.

Turning to `Cc1cc(C(=O)N2[C@@H]3CC[C@H]2CN(c2ncnc4[nH]ccc24)C3)ccc1S(N)(=O)=O` [Example 392, 2-Methyl-4-[3-(7H-pyrrolo[2,3-d]pyrimidin-4-yl)-3,8-diaza-bicyclo[3.2.1]octane-8-carbonyl]-benzenesulfonamide], the EC50 in assay [1] (HTRF assay) is below 0.1 µM; in assay [2] (HTRF assay), below 0.1 µM; in assay [3] (HTRF assay), below 0.1 µM; in assay [4] (HTRF assay), above 0.5 µM.

On to `COc1cc(S(N)(=O)=O)ccc1C(=O)N1[C@@H]2CC[C@H]1CN(c1ncnc3[nH]ccc13)C2` [Example 393, 3-Methoxy-4-[3-(7H-pyrrolo[2,3-d]pyrimidin-4-yl)-3,8-diaza-bicyclo[3.2.1]octane-8-carbonyl]-benzenesulfonamide], for which the half-maximal effective concentration (EC50) was below 0.1 µM in assay [1] (HTRF assay), below 0.1 µM in assay [2] (HTRF assay), below 0.1 µM in assay [3] (HTRF assay) and 0.1 to 0.5 µM in assay [4] (HTRF assay).

As for `COc1cnc2[nH]ccc2c1N1CCN(C(=O)c2csc3ccccc23)C2(CC2)C1` [Example 289, Benzo[b]thiophen-3-yl-[7-(5-methoxy-1H-pyrrolo[2,3-b]pyridin-4-yl)-4,7-diaza-spiro[2.5]oct-4-yl]-methanone], the EC50 was 0.1 to 0.5 µM in assay [1] (HTRF assay), 0.1 to 0.5 µM in assay [2] (HTRF assay), 0.1 to 0.5 µM in assay [3] (HTRF assay) and above 0.5 µM in assay [4] (HTRF assay).

Turning to `N#CCc1ccc(C(=O)N2CCN(c3ccnc4[nH]ccc34)CC23CC3)cc1` [Example 230, {4-[7-(1H-Pyrrolo[2,3-b]pyridin-4-yl)-4,7-diaza-spiro[2.5]octane-4-carbonyl]-phenyl}-acetonitrile], the EC50 in assay [1] (HTRF assay) was 0.1 to 0.5 µM; in assay [2] (HTRF assay) it was below 0.1 µM; in assay [3] (HTRF assay), 0.1 to 0.5 µM; in assay [4] (HTRF assay), above 0.5 µM.

For `CS(=O)(=O)c1cccc(C(=O)N2CCN(c3ncnc4[nH]ccc34)CC23CC3)c1` [Example 367, (3-Methanesulfonyl-phenyl)-[7-(7H-pyrrolo[2,3-d]pyrimidin-4-yl)-4,7-diaza-spiro[2.5]oct-4-yl]-methanone], the EC50 in assay [1] (HTRF assay) is below 0.1 µM; in assay [2] (HTRF assay) it was below 0.1 µM; in assay [3] (HTRF assay), 0.1 to 0.5 µM; in assay [4] (HTRF assay), 0.1 to 0.5 µM.

Take `Cc1ccsc1C(=O)N1CCN(c2ncnc3[nH]ccc23)CC12CC2` [Example 90, (3-Methyl-thiophen-2-yl)[7-(7H-pyrrolo[2,3-d]pyrimidin-4-yl)-4,7-diaza-spiro[2.5]oct-4-yl]-methanone]: the EC50 is below 0.1 µM in assay [1], below 0.1 µM in assay [2], 0.1 to 0.5 µM in assay [3] and 0.1 to 0.5 µM in assay [4].

As to `N#CC1CCN(C(=O)C2(C(=O)N3CCN(c4ncnc5[nH]ccc45)CC34CC4)CC2)C1` (centres unmarked) [Example 88, 1-{1-[7-(7H-Pyrrolo[2,3-d]pyrimidin-4-yl)-4,7-diaza-spiro[2.5]octane-4-carbonyl]-cyclopropanecarbonyl}-pyrrolidine-3-carbonitrile], the EC50 is above 0.5 µM in assay [1], 0.1 to 0.5 µM in assay [2], above 0.5 µM in assay [3] and above 0.5 µM in assay [4].

Regarding `O=C(Cc1ccc(C(F)(F)F)cc1)N1[C@@H]2CC[C@@H]1CN(c1ncnc3[nH]ccc13)C2` [Example 349, 1-[3-(7H-Pyrrolo[2,3-d]pyrimidin-4-yl)-3,8-diaza-bicyclo[3.2.1]oct-8-yl]-2-(4-trifluoromethyl-phenyl)-ethanone], the EC50 in assay [1] (HTRF assay) is 0.1 to 0.5 µM; in assay [2] (HTRF assay), 0.1 to 0.5 µM; in assay [3] (HTRF assay), 0.1 to 0.5 µM; in assay [4] (HTRF assay), above 0.5 µM.

Turning to `Cc1c(C(=O)N2C3CCC2CN(c2ncnc4[nH]ccc24)C3)[nH]c2ccc(F)cc12` [Example 201, (5-Fluoro-3-methyl-1H-indol-2-yl)-[3-(7H-pyrrolo[2,3-d]pyrimidin-4-yl)-3,8-diaza-bicyclo[3.2.1]oct-8-yl]-methanone], the EC50 in assay [1] is below 0.1 µM; in assay [2], 0.1 to 0.5 µM; in assay [3], 0.1 to 0.5 µM; in assay [4] it was above 0.5 µM.

Regarding `COc1cnc2[nH]ccc2c1N1CCN(C(=O)c2cc3cc(C#N)ccc3[nH]2)C2(CC2)C1` [Example 291, 2-[7-(5-Methoxy-1H-pyrrolo[2,3-b]pyridin-4-yl)-4,7-diaza-spiro[2.5]octane-4-carbonyl]-1H-indole-5-carbonitrile], the EC50 in assay [1] (HTRF assay) was above 0.5 µM; in assay [2] (HTRF assay) it was above 0.5 µM; in assay [3] (HTRF assay) it was 0.1 to 0.5 µM; in assay [4] (HTRF assay), above 0.5 µM.

With `N#CCOc1ccc(CC(=O)N2CCN(c3ncnc4[nH]ccc34)CC23CC3)cc1` [Example 69, (4-{2-Oxo-2-[7-(7H-pyrrolo[2,3-d]pyrimidin-4-yl)-4,7-diaza-spiro[2.5]oct-4-yl]-ethyl}-phenoxy)-acetonitrile], the EC50 in assay [1] was below 0.1 µM; in assay [2], below 0.1 µM; in assay [3] it was below 0.1 µM; in assay [4], above 0.5 µM.

Regarding `Cc1c[nH]c2ncnc(N3CCN(C(=O)CCCC#N)C4(CC4)C3)c12` [Example 332, 5-[7-(5-Methyl-7H-pyrrolo[2,3-d]pyrimidin-4-yl)-4,7-diaza-spiro[2.5]oct-4-yl]-5-oxo-pentanenitrile], the EC50 in assay [1] (HTRF assay), in assay [2] (HTRF assay), in assay [3] (HTRF assay) and in assay [4] (HTRF assay) was above 0.5 µM in each case.

As to `CC(C)CNC(=S)N1[C@@H]2CC[C@H]1CN(c1ncnc3[nH]ccc13)C2` [Example 10, 3-(7H-Pyrrolo[2,3-d]pyrimidin-4-yl)-3,8-diaza-bicyclo[3.2.1]octane-8-carbothioic acid isobutyl-amide], the EC50 in assay [1] is 0.1 to 0.5 µM; in assay [2] it was 0.1 to 0.5 µM; in assay [3], above 0.5 µM; in assay [4], above 0.5 µM.

On to `CC#CCOC(=O)N1CCN(c2ncnc3[nH]ccc23)CC12CC2` [Example 89, 7-(7H-Pyrrolo[2,3-d]pyrimidin-4-yl)-4,7-diaza-spiro[2.5]octane-4-carboxylic acid but-2-ynyl ester], for which the EC50 in assay [1] is below 0.1 µM; in assay [2], below 0.1 µM; in assay [3] it was 0.1 to 0.5 µM; in assay [4], above 0.5 µM.

As to `O=C(c1ccc(S(=O)(=O)NCC2CCCO2)cc1)N1CCN(c2ncnc3[nH]ccc23)CC12CC2` (centres unmarked) [Example 394, 4-[7-(7H-Pyrrolo[2,3-d]pyrimidin-4-yl)-4,7-diaza-spiro[2.5]octane-4-carbonyl]-N-(tetrahydro-furan-2-ylmethyl)-benzenesulfonamide], the EC50 is below 0.1 µM in assay [1] (HTRF assay), below 0.1 µM in assay [2] (HTRF assay), 0.1 to 0.5 µM in assay [3] (HTRF assay) and 0.1 to 0.5 µM in assay [4] (HTRF assay).
